Where a SMILES comes first, the peptide text is derived from it. Bridges are numbered along the chain shown (N, C = ends).
Columns and labels:
α5 β1 integrin [1] = molecular target: α5 β1 integrin (Homo sapiens, UniProt P05556+P08648); assay: 125I-fibronectin binding assay, competing peptides; settings: microtiter wells coated with α5 β1, 1 hr; FIG. 1; read-out: IC50, inhibition of 125I-fibronectin binding to α5 β1
Experimental: The α5 β1 integrin was bound to α5 specific antibody-coated wells by incubating 300 μl of a placental extract per well in TBS buffer containing 0.1M octylglucoside, 1 mM CaCl2, 1 mM MnCl2 and proteinase inhibitors overnight at 4° C., as described by Pytela et al. (1987), supra. Alternatively, the α5β1 integrin was directly coated on plastic as described above. The wells were extensively washed with TBS containing 0.1% NP-40. ^125 I-labeled fibronectin (100,000 cpm per well) was incubated in the presence of competing peptides for 1 hr at 25° C. in 100 μl volume of TBS containing 0.1% NP-40 and 1 mM MnCl2, as described by Koivunen et al. (1993), supra. After repeated washing, the bound radioactivity was quantitated with a gamma counter.
Initially, CRRETAWAC [SEQ ID NO:6] was examined for its ability to inhibit binding of fibronectin, which is the natural ligand for α5 β1. Briefly, ^125 I-fibronectin was incubated for 1 hr in the presence of competing peptides in microtiter wells coated with α5 β1. Following incubation, the wells were washed and bound radioactivity was determined with a gamma counter.

α5 β1 integrin [2] = molecular target: T1, α5 β1 integrin (UniProt G3HZ55+P08648); assay: Attachment of B2/α27 cells to immobilized GACRRETAWACGA peptide and its inhibition; type: cell-based, human; settings: EDTA 10 mM; FIG. 8
T1 construct: expressed in transfected cells; host or cells: CHO B2/α27
Text: Cell lines expressing fibronectin-binding integrins were used to determine peptide activities against these integrins in the cell attachment assay described by Ruoslahti et al., Meth. Enzymol. 144:803-831 (1982), which is incorporated herein by reference. Human plasma fibronectin was iodinated as described by Morla and Ruoslahti, J. Cell Biol. 118:421-429 (1992), which is incorporated herein by reference. Vitronectin was obtained from Telios Pharmaceuticals (San Diego, Calif.). […] Peptide was coated on plastic by incubating at 37° C. for 2 hr in phosphate buffered saline containing 0.25% glutaraldehyde to crosslink the peptide. Free binding sites on the plastic were blocked using BSA. Approximately 1×10^5 cells per well were allowed to attach for 1 hr in the presence or absence of competing peptides. Bound cells were quantitated by staining with 0.1% amido black.
In addition to the inhibition of cell attachment to natural ligands, attachment and inhibition assays were performed using the […] [SEQ ID NO:3] peptide as substrate. The microtiter well were coated with […] [SEQ ID NO:3] using glutaraldehyde as described above. […] Bound cells were quantitated by staining with 0.1% amido black.

| Structure (SMILES) | IC50 (α5 β1 integrin [1]) | Inhibition of cell attachment to immobilized RRETAWA peptide by EDTA (α5 β1 integrin [2]) |
| --- | --- | --- |
| CC(C)C[C@H](NC(=O)[C@@H]1CSSC[C@H](NC(=O)[C@H](C)NC(=O)CN)C(=O)N[C@@H](CCCNC(=N)N)C(=O)NCC(=O)N[C@@H](CC(=O)O)C(=O)N1)C(=O)NCC(=O)N[C@@H](C)C(=O)O [CRGDC, GA*CRGDC*LGA] (H-GACRGDCLGA-OH; disulfide 3-7) | ~8 nM | – |
| C[C@H](NC(=O)CNC(=O)[C@@H]1CSSC[C@H](NC(=O)[C@H](C)NC(=O)CN)C(=O)N[C@@H](CCCNC(=N)N)C(=O)N[C@@H](CCCNC(=N)N)C(=O)N[C@@H](CCC(=O)O)C(=O)N[C@@H]([C@@H](C)O)C(=O)N[C@@H](C)C(=O)N[C@@H](Cc2c[nH]c3ccccc23)C(=O)N[C@@H](C)C(=O)N1)C(=O)O [CRRETAWAC, GA*CRRETAWAC*GA] (H-GACRRETAWACGA-OH; disulfide 3-11) | ~8 nM | – |
| O=C(O)CN(CCN(CC(=O)O)CC(=O)O)CC(=O)O [EDTA] | – | inhibited |

From patent US5627263A, “Integrin-binding peptides” (La Jolla Cancer Research Foundation, priority 1995, dated 1997)
